Assay results published in PMC11923636, “Synthesis, Pharmacological Evaluation, and Molecular Modeling of Phthalimide Derivatives as Monoamine Oxidase and Cholinesterase Dual Inhibitors” (ACS Omega, 2025).
Several values for one entry are separate records, joined by “and”; a condition that tells them apart may be missing. Identical values can stand only once. Marks after values point to notes of the source that are not given here.

Columns and labels:
[1] = target: Electrophorus electricus AChE (Electrophorus electricus, UniProt O42275); test: biochemical; assay type: biochemical; settings: for IC50: mean ± SEM, n = 3, read-out: IC50 (μM) ± SEM eeAChE; for SI = IC50 of BChE/IC50 of AChE: selectivity index
Description: (§1) The synthesized compounds were evaluated for their inhibition potential against cholinesterases (Electrophorus electricus AChE and equine serum lyophilized BChE).
(§2) The cholinesterase in vitro bioassay for the synthesized compounds was performed using already reported protocols.[29],[30] Ellman’s assay method was used to study the inhibition of Electrophorus electricus AChE and Equine Serum lyophilized BChE. Stock solutions of synthesized compounds were prepared in potassium phosphate buffer (pH 8.0). A sufficient amount of 5,5-dithio-bis-2-nitrobenzoic acid (DTNB, Ellman’s reagent), a stock solution of synthesized compounds, and 0.03 U/ml of the enzyme (AChE or BChE) were added to a 96-well plate and incubated at 30 °C for 10 min. Subsequently, 1 mM ATCI or BTCI was added, and the reaction mixture was incubated for 15 min. […] Sample concentration was plotted against inhibitory activity to obtain IC50 values.

[2] = target: T1, equine serum lyophilized BChE (Equus caballus, UniProt P81908); test: biochemical; settings: mean ± SEM, n = 3; read-out: IC50 (μM) ± SEM eqBChE
T1 construct: Equine Serum lyophilized BChE; from tissue; host or cells: equine serum
Description: as §1, §2

[3] = target: T2, human MAO-A (Homo sapiens, UniProt P21397); test: Human MAO isoform inhibition assay (fluorometric), MAO-A; assay type: biochemical; settings: mean ± SEM, n = 3; read-out: IC50 (μM) ± SEM hMAO-A
T2 sequence (P21397 1-527): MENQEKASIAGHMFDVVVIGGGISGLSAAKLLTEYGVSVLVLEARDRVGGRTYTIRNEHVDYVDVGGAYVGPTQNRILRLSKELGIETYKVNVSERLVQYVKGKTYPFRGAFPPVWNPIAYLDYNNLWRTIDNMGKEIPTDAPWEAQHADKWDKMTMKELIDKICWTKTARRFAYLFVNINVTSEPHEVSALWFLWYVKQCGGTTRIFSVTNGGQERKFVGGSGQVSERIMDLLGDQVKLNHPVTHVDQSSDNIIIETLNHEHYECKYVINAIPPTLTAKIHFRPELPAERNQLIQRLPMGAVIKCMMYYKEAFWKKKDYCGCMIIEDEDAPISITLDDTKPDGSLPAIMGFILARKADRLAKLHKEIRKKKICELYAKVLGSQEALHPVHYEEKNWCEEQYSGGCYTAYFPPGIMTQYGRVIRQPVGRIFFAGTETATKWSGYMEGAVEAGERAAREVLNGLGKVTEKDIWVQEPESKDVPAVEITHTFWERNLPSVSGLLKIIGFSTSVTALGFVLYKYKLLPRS
Description: (§3) The human MAO isoform assay was also carried out using a fluorescence-based assay protocol according to the reported literature.
(§4) Inhibitory activity of the synthesized compounds against MAO isoforms, specifically human MAO-A and MAO-B, was determined by using benzylamine and tyramine substrates in the dark (protected from light) in a 96-well plate by an already reported fluorometric method.[31],[32]

[4] = target: T3, human MAO-B (Homo sapiens, UniProt P27338); test: Human MAO isoform inhibition assay (fluorometric), MAO-B; assay type: biochemical; settings: for IC50: mean ± SEM, n = 3, read-out: IC50 (μM) ± SEM hMAO-B; for SI (IC50 hMAO-A/IC50 hMAO-B): selectivity index
T3 sequence (P27338 1-520): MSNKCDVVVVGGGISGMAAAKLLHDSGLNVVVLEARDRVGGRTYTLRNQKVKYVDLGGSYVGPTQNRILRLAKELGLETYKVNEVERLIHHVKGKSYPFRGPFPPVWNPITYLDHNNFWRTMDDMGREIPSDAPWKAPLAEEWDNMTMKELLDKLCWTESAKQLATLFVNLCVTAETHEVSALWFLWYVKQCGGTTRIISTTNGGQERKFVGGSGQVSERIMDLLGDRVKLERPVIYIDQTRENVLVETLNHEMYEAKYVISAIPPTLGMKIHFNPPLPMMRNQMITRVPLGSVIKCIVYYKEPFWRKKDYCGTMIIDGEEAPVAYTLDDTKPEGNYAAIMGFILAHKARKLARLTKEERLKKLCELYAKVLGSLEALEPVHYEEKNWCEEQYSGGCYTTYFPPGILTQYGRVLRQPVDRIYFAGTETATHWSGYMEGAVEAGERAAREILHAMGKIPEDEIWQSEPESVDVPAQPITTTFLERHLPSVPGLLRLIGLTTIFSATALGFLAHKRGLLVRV
Description: as §3, §4

[5] = tested on: SH-SY5Y neuroblastoma cells; assay type: cell-based; settings: MTT; for cytotoxicity on SH-SY5Y cells: 10, 20, 30, and 50 μM; for neurotoxicity on SH-SY5Y cells: higher concentrations (100 μM)
Description: To determine the biological safety of the synthesized compounds, we performed a cytotoxicity study using a human SH-SY5Y neuroblastoma cell line.
SH-SY5Y cells were cultured in 96-well plates (1 × 10^5 cells/well) in a medium containing fetal bovine serum (FBS), penicillin (100 U/ml), and streptomycin ([…]) at 37 °C and 5% CO2. […] Subsequently, synthesized compounds were added to cells, followed by the addition of 20 μL of MTT reagent (10 mg/mL) at the specified time. Plates were then incubated at 37 °C and 5% CO2, and purple color precipitate formation was observed by a microscope. Lastly, DMSO ([…]) was added to solubilize precipitates, and the plates were read at 570 nm to determine the cell viability. Results are expressed as percentage growth of cells, in which their viability is compared to control cells in the presence or absence of synthesized compounds and a standard. The following formula was utilized for the measurement of the % cell viability. [drawing 1]

[6] = in vitro; settings: for Papp at 20 h: PAMPA, pH 7.4; for prediction of CNS penetration: class from PAMPA-BBB Pe
Description: A fundamental requirement for the effectiveness of anti-AD drugs is their capability to traverse the BBB (blood–brain barrier). […]
Briefly, synthesized compounds were first dissolved in DMSO (10 mM) that was further diluted by the addition of phosphate buffer ([…]) having a pH of 7.4. PBL dissolved in dodecane was used for coating the membranes of the donor plates. Then, the test compound (0.2 mL) was added to the plate, followed by PBS (0.2 mL; pH = 7.4) to the acceptor plate, which was further placed under the donor plate in order to form a “sandwich”. […] A UV plate reader was employed for the measurements of the drug concentration in donor, acceptor, and reference wells. The permeability (Pe) of the compounds was measured by using the following formula. [drawing 2]

[7] = target: T4, mice brain MAO-B (Mus musculus, UniProt Q8BW75); test: Ex vivo MAO-B inhibition reversibility time course; assay type: in vivo, ICR mice; settings: single ip dose
T4 construct: from tissue; host or cells: ICR mouse brain homogenate pellet
T4 sequence (Q8BW75 1-520): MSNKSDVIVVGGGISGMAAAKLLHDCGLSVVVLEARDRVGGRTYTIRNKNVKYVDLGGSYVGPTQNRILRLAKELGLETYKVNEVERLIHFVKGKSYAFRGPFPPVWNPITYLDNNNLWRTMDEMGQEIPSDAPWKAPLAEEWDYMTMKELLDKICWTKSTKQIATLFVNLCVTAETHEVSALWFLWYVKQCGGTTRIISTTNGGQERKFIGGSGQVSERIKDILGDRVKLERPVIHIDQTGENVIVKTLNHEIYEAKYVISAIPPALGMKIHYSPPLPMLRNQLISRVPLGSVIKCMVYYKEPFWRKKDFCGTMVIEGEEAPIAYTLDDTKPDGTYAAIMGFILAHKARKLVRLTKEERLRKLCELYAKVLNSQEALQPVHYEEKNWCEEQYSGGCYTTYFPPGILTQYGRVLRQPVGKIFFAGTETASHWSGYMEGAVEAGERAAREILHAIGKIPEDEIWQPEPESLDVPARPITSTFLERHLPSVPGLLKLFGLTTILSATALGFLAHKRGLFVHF
Description: After the experiments, the animals were euthanized following Animal Euthanasia (AVMA Guidelines) guidelines to ensure humane treatment. Five groups of ICR mice were administered test samples by intraperitoneal injection, and the intact brains were excised and were then frozen for almost 1 h (−20 °C). Brain tissue ([…]) was suspended in sucrose (0.3 M) using a homogenizer (Ultra-Turrax T8; at 60 Hz for almost 70 s) and then subjected to centrifugation for 10 min at 1500 rpm (4 °C). 200 μL of supernatant was collected and centrifuged for 20 min at 15,000 rpm and 4 °C. Subsequently, the formed pellet was resuspended in KHPO4 solution (pH 7.2, 600 μL) and then subjected to 20 min centrifugation at 15,000 rpm and 4 °C. This process was repeated three times. Enzyme activity was determined using an Assay Kit (monoamine oxidase). […] The mice were then sacrificed at intervals ranging from 0.5 to 48 h.[34]

T1 sequence (P81908 whole entry): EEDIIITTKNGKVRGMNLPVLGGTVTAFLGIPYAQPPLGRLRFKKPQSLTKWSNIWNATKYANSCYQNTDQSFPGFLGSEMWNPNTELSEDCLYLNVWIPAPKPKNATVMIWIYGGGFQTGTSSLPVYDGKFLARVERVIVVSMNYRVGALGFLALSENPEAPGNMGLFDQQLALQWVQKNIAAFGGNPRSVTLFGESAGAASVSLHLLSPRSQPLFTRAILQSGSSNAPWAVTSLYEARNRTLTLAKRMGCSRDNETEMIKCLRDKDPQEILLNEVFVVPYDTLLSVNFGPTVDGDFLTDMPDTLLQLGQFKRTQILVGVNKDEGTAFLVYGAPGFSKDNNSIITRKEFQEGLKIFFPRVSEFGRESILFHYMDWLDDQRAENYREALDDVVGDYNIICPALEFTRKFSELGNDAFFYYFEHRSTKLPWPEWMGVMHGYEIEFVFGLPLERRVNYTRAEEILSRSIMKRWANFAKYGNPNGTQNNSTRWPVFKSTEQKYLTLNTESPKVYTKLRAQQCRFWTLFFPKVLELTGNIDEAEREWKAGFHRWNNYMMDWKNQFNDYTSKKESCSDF
Sequence of Electrophorus electricus AChE (O42275 24-633): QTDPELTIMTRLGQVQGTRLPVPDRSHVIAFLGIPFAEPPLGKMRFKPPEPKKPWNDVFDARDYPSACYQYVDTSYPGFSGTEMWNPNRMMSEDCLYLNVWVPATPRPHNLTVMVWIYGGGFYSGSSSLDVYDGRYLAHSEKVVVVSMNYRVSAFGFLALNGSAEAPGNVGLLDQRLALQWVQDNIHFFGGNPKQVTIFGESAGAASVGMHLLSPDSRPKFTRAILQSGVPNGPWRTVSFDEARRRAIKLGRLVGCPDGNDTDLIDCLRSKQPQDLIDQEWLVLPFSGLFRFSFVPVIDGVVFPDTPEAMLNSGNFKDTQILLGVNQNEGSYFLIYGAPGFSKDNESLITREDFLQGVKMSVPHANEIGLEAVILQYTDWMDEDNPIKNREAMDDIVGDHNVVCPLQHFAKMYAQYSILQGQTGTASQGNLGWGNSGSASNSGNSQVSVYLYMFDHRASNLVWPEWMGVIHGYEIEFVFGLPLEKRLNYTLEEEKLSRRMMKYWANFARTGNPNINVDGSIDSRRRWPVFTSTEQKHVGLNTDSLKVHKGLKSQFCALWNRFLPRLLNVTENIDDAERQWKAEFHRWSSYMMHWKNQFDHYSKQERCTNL

Row | SMILES | IC50 [1] | SI = IC50 of BChE/IC50 of AChE [1] | IC50 [2] | IC50 [3] | IC50 [4] | SI (IC50 hMAO-A/IC50 hMAO-B) [4] | cytotoxicity on SH-SY5Y cells [5] | neurotoxicity on SH-SY5Y cells [5] | Papp at 20 h [6] | prediction of CNS penetration [6] | activity of MAO-B recovered ([7]; after 24 h) | activity of MAO-B recovered ([7]; after 5 h)
1 | O=C1c2ccccc2C(=O)N1Cc1ccc(-c2ccc3c(c2)OCO3)cc1 [3k] | 21.1 ± 0.47 µM | 3.8 and 4 | 80.7 ± 1.54 µM | 40.4 ± 1.31 µM | 0.66 ± 0.03 µM | 61 |  |  |  |  |  | 
2 | Cc1cc(C)cc(-c2ccc(CN3C(=O)c4ccccc4C3=O)cc2)c1 [3h] | 0.73 ± 0.04 µM | 40 | 29.6 ± 1.16 µM | 75.1 ± 1.25 µM | 0.64 ± 0.02 µM | 117 |  |  |  |  |  | 
3 | O=C1c2ccccc2C(=O)N1Cc1ccc(-c2cccc(C(F)(F)F)c2)cc1 [3f] | 4.48 ± 0.11 µM | 4 | 17 ± 1.04 µM | 11.3 ± 0.2 µM | 0.09 µM and 0.091 µM | 124 | No cytotoxicity | negligible neurotoxicity | 18.3 ± 1.27 ×10⁻⁶ cm/s | CNS+ (“CNS+” (prediction of high BBB permeation); Pe (10^–6 cm/s) > 4.39) | ~80% | 
4 | N#Cc1ccc(-c2ccc(CN3C(=O)c4ccccc4C3=O)cc2)cc1 [3d] | 9.21 ± 0.14 µM | 4 | 33.5 ± 1.09 µM | 28.8 ± 1.44 µM | 0.64 ± 0.03 µM | 45 |  |  |  |  |  | 
5 | O=C1c2ccccc2C(=O)N1Cc1ccc(-c2ccc(C(F)(F)F)cc2)cc1 [3e] | 0.24 ± 0.01 µM | 26 | 6.29 ± 0.17 µM | 16.5 ± 0.66 µM | 0.11 ± 0.01 µM | 150 | No cytotoxicity | negligible neurotoxicity | 18.7 ± 1.12 ×10⁻⁶ cm/s | CNS+ ^b (“CNS+” (prediction of high BBB permeation); Pe (10^–6 cm/s) > 4.39) | ~95% | 50%
6 | C[C@H](NCc1ccc(OCc2cccc(F)c2)cc1)C(N)=O [safinamide, reference compound] |  |  |  |  |  |  |  |  | 7.56 ± 0.02 ×10⁻⁶ cm/s | CNS+ (“CNS+” (prediction of high BBB permeation); Pe (10^–6 cm/s) > 4.39) |  | 
7 | O=C1c2ccccc2C(=O)N1Cc1ccc(-c2cccc3ccccc23)cc1 [3j] | 0.61 ± 0.03 µM | 31 | 18.9 ± 1.08 µM | 6.98 ± 0.2 µM | 0.13 ± 0.01 µM | 53 |  |  |  |  |  | 
8 | Cc1ccc2cc(-c3ccc(CN4C(=O)c5ccccc5C4=O)cc3)ccc2n1 [3m] | 0.89 ± 0.1 µM | 35 | 31.1 ± 0.79 µM | 23.5 ± 1.12 µM | 0.15 ± 0.01 µM | 156 |  |  |  |  |  | 
